Reference: patent US20220348565A1, “PHARMACEUTICAL COMPOUNDS” (SENTINEL ONCOLOGY LIMITED, priority 2019, published 2022)

How the values were obtained:
Experiment in all cases: DiscoverX KinomeScreen kinase selectivity competition binding assay
[1] = target: T1, panel of ninety-seven kinases (Homo sapiens, UniProt P07333); conditions: CSF1R; read-out: % Ctrl @ 3 μM
T1 construct: purchased DiscoverX; host or cells: T7 phage in E. coli (BL21-derived) for most kinases; HEK-293 for the rest
Protocol: (§1) Atropisomer A-2 has been tested for off-target activity against a panel of ninety-seven kinases distributed across the kinome at a concentration of 3 μM using the DiscoverX KinomeScreen assay. The DiscoverX KinomeScreen assay is a site-directed competition binding assay which measures the binding affinity of a compound to a kinase, by use of a solid supported control compound which can bind or capture the kinases in solution. In the absence of a kinase-inhibitor test compound, all of the kinase will bind to the solid support. If a kinase-inhibitor test compound is added to the assay mix, the amount of kinase binding to the solid support will be reduced, the extent of reduction being dependent on the potency of the test compound as a kinase inhibitor. […] For most assays, kinase-tagged T7 phage strains were grown in parallel in 24-well blocks in an E. coli host derived from the BL21 strain. E. coli were grown to log-phase and infected with T7 phage from a frozen stock (multiplicity of infection=0.4) and incubated with shaking at 32° C. until lysis (90-150 minutes). The lysates were centrifuged (6,000×g) and filtered (0.2 μm) to remove cell debris. The remaining kinases were produced in HEK-293 cells and subsequently tagged with DNA for qPCR detection. Streptavidin-coated magnetic beads were treated with biotinylated small molecule ligands for 30 minutes at room temperature to generate affinity resins for kinase assays. The liganded beads were blocked with excess biotin and washed with blocking buffer (SeaBlock (Pierce), 1% BSA, 0.05% Tween 20, 1 mM DTT) to remove unbound ligand and to reduce non-specific phage binding. […] Test compounds were prepared as 40× stocks in 100% DMSO and directly diluted into the assay. All reactions were performed in polypropylene 384-well plates in a final volume of 0.02 ml. […] The beads were then re-suspended in elution buffer (1×PBS, 0.05% Tween 20, 0.5 μM non-biotinylated affinity ligand) and incubated at room temperature with shaking for 30 minutes. The kinase concentration in the eluates was measured by qPCR. Compounds that bind the kinase active site and directly (sterically) or indirectly (allosterically) prevent kinase binding to the immobilized ligand, will reduce the amount of kinase captured on the solid support. […] The strength of binding of the test molecule to the kinase can be expressed as the percent control (% Ctrl) The compound(s) were screened at 3000 nM concentration, and results for primary screen binding interactions are reported as ‘% Ctrl’, where lower numbers indicate stronger hits in the matrix on the following page(s). [formula] • negative control=DMSO (100% Ctrl) • positive control=control compound (0% Ctrl)

[2] = target: T2, panel of ninety-seven kinases (Homo sapiens, UniProt P52333); conditions: JAK3; read-out: % Ctrl @ 3 μM
T2 construct: purchased DiscoverX; host or cells: T7 phage in E. coli (BL21-derived) for most kinases; HEK-293 for the rest
T2 sequence (P52333 whole entry): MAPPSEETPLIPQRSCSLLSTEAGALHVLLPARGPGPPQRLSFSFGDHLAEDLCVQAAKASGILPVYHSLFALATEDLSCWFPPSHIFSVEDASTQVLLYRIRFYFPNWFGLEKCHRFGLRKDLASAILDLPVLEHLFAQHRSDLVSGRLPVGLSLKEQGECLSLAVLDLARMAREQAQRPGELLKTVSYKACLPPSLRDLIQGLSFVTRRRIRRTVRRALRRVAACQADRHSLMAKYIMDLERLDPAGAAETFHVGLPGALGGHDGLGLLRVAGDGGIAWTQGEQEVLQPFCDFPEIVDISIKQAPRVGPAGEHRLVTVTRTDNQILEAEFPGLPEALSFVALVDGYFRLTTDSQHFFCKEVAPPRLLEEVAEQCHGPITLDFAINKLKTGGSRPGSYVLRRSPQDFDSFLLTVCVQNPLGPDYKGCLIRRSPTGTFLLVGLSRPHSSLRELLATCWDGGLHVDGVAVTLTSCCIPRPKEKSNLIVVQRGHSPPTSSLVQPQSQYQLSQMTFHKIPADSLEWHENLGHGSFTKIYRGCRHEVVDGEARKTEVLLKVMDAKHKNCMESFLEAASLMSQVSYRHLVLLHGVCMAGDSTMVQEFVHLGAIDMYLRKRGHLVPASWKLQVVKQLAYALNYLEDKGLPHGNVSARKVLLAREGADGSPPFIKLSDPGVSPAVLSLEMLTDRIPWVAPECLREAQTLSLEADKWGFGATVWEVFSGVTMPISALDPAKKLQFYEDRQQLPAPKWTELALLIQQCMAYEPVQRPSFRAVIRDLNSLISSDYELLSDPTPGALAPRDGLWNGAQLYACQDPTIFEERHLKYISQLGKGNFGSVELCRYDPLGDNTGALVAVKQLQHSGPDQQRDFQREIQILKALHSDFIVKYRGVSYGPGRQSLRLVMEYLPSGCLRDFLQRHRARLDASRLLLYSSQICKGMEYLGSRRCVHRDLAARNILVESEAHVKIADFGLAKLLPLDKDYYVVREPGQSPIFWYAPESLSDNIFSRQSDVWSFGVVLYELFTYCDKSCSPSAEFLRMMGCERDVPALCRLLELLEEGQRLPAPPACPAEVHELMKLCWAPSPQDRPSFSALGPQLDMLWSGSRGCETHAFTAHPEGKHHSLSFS
Protocol: as §1

[3] = target: T3, panel of ninety-seven kinases (Homo sapiens, UniProt Q02156); conditions: PRKCE; read-out: % Ctrl @ 3 μM
T3 construct: purchased DiscoverX; host or cells: T7 phage in E. coli (BL21-derived) for most kinases; HEK-293 for the rest
Protocol: as §1

[4] = target: T4, panel of ninety-seven kinases (Homo sapiens, UniProt P51812); conditions: RPS6KA3; read-out: % Ctrl @ 3 μM
T4 construct: purchased DiscoverX; host or cells: T7 phage in E. coli (BL21-derived) for most kinases; HEK-293 for the rest
Protocol: as §1

[5] = target: T5, panel of ninety-seven kinases (Homo sapiens, UniProt Q13153); conditions: PAK1; read-out: % Ctrl @ 3 μM
T5 construct: purchased DiscoverX; host or cells: T7 phage in E. coli (BL21-derived) for most kinases; HEK-293 for the rest
T5 sequence (Q13153 whole entry): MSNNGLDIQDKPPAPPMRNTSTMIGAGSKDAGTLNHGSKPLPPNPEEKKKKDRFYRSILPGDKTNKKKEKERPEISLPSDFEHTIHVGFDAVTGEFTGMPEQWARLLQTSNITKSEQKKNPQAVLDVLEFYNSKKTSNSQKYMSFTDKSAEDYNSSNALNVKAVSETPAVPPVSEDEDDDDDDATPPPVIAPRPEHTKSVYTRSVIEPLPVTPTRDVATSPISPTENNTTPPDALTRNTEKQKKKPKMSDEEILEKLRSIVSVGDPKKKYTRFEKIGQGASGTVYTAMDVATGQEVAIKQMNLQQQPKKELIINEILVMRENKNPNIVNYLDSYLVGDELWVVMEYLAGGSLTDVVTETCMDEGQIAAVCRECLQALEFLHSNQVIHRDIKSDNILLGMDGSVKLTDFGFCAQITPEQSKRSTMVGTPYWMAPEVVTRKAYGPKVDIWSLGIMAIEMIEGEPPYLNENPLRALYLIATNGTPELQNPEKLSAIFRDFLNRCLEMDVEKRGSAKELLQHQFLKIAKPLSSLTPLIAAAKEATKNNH
Protocol: as §1

[6] = target: T6, panel of ninety-seven kinases (Homo sapiens, UniProt Q9BWU1); conditions: CDK19; read-out: % Ctrl @ 3 μM
T6 construct: purchased DiscoverX; host or cells: T7 phage in E. coli (BL21-derived) for most kinases; HEK-293 for the rest
Protocol: as §1

[7] = target: T7, panel of ninety-seven kinases (Homo sapiens, UniProt P08581); conditions: MET; read-out: % Ctrl @ 3 μM
T7 construct: purchased DiscoverX; host or cells: T7 phage in E. coli (BL21-derived) for most kinases; HEK-293 for the rest
T7 sequence (P08581 25-1390): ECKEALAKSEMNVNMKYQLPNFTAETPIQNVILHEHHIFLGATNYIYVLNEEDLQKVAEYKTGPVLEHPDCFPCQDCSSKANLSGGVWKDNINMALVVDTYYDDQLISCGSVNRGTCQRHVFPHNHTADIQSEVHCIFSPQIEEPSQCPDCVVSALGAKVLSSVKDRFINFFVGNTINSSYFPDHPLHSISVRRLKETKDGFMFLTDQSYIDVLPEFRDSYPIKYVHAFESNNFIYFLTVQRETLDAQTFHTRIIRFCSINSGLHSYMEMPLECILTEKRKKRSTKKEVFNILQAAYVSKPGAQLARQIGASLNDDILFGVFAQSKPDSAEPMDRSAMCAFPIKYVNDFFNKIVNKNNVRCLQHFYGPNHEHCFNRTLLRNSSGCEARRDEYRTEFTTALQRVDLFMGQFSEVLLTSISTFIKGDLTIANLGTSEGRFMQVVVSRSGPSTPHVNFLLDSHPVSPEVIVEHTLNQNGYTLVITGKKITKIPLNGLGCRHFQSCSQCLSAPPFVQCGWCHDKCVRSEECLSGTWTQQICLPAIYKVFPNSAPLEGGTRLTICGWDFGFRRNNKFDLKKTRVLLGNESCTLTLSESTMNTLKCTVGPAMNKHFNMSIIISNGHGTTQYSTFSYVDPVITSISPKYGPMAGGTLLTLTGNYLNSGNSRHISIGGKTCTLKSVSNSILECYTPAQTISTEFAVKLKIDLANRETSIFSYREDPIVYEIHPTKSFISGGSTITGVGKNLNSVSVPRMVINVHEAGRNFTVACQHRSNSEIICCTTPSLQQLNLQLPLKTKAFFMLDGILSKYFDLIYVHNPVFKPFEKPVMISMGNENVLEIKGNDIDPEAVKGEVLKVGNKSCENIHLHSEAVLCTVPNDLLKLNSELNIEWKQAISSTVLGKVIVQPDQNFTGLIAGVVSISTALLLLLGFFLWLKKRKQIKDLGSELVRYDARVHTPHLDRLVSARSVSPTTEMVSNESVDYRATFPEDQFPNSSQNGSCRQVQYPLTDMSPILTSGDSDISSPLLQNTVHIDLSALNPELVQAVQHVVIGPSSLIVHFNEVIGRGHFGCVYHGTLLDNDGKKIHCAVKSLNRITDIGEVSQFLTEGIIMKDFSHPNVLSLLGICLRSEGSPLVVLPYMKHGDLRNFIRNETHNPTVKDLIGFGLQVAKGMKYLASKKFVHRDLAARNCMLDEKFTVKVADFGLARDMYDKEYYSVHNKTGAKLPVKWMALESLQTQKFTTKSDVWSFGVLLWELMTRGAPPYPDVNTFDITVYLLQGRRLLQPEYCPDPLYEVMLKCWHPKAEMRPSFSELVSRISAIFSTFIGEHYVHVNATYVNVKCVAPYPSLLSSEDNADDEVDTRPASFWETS
Protocol: as §1

[8] = target: T8, panel of ninety-seven kinases (Homo sapiens, UniProt Q9Y463); conditions: DYRK1B; read-out: % Ctrl @ 3 μM
T8 construct: purchased DiscoverX; host or cells: T7 phage in E. coli (BL21-derived) for most kinases; HEK-293 for the rest
Protocol: as §1

[9] = target: T9, panel of ninety-seven kinases (Homo sapiens, UniProt P78368); conditions: CSNK1G2; read-out: % Ctrl @ 3 μM
T9 construct: purchased DiscoverX; host or cells: T7 phage in E. coli (BL21-derived) for most kinases; HEK-293 for the rest
Protocol: as §1

[10] = target: T10, panel of ninety-seven kinases (Homo sapiens, UniProt P27448); conditions: MARK3; read-out: % Ctrl @ 3 μM
T10 construct: purchased DiscoverX; host or cells: T7 phage in E. coli (BL21-derived) for most kinases; HEK-293 for the rest
T10 sequence (P27448 whole entry): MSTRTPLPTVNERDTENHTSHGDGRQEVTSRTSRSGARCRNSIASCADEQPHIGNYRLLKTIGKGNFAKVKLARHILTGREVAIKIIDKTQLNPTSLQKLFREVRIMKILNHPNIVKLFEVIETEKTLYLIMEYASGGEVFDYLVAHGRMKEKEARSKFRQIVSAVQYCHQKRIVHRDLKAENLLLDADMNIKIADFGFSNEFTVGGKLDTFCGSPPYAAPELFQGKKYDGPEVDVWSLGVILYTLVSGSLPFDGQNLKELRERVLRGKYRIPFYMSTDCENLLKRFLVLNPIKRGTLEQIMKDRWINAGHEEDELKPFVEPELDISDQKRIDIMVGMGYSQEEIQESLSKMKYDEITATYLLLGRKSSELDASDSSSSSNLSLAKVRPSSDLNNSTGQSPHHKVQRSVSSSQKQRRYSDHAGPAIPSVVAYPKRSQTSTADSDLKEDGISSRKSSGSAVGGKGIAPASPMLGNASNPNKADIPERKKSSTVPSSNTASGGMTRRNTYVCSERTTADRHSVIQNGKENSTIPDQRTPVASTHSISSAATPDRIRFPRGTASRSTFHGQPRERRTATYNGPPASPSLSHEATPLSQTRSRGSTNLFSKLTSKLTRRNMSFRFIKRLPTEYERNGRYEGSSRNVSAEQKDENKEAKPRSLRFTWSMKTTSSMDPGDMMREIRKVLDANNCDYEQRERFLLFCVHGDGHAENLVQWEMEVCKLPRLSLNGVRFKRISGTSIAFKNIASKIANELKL
Protocol: as §1

[11] = target: T11, panel of ninety-seven kinases (Homo sapiens, UniProt Q9Y6R4); conditions: MAP3K4; read-out: % Ctrl @ 3 μM
T11 construct: purchased DiscoverX; host or cells: T7 phage in E. coli (BL21-derived) for most kinases; HEK-293 for the rest
Protocol: as §1

[12] = target: T12, panel of ninety-seven kinases (Homo sapiens, UniProt O60674); conditions: JAK2; read-out: % Ctrl @ 3 μM
T12 construct: purchased DiscoverX; host or cells: T7 phage in E. coli (BL21-derived) for most kinases; HEK-293 for the rest
Protocol: as §1

[13] = target: T13, panel of ninety-seven kinases (Homo sapiens, UniProt O14965); conditions: AURKA; read-out: % Ctrl @ 3 μM
T13 construct: purchased DiscoverX; host or cells: T7 phage in E. coli (BL21-derived) for most kinases; HEK-293 for the rest
Protocol: as §1

[14] = target: T14, panel of ninety-seven kinases (Homo sapiens, UniProt Q86UX6); conditions: STK32C; read-out: % Ctrl @ 3 μM
T14 construct: purchased DiscoverX; host or cells: T7 phage in E. coli (BL21-derived) for most kinases; HEK-293 for the rest
Protocol: as §1

[15] = target: T15, panel of ninety-seven kinases (Homo sapiens, UniProt P45984); conditions: MAPK9; read-out: % Ctrl @ 3 μM
T15 construct: purchased DiscoverX; host or cells: T7 phage in E. coli (BL21-derived) for most kinases; HEK-293 for the rest
Protocol: as §1

[16] = target: T16, panel of ninety-seven kinases (Homo sapiens, UniProt O75116); conditions: ROCK2; read-out: % Ctrl @ 3 μM
T16 construct: purchased DiscoverX; host or cells: T7 phage in E. coli (BL21-derived) for most kinases; HEK-293 for the rest
Protocol: as §1

[17] = target: T17, panel of ninety-seven kinases (Homo sapiens, UniProt P36507); conditions: MAP2K2; read-out: % Ctrl @ 3 μM
T17 construct: purchased DiscoverX; host or cells: T7 phage in E. coli (BL21-derived) for most kinases; HEK-293 for the rest
Protocol: as §1

[18] = target: T18, panel of ninety-seven kinases (Homo sapiens, UniProt Q8IYT8); conditions: ULK2; read-out: % Ctrl @ 3 μM
T18 construct: purchased DiscoverX; host or cells: T7 phage in E. coli (BL21-derived) for most kinases; HEK-293 for the rest
Protocol: as §1

[19] = target: T19, panel of ninety-seven kinases (Homo sapiens, UniProt Q13177); conditions: PAK2; read-out: % Ctrl @ 3 μM
T19 construct: purchased DiscoverX; host or cells: T7 phage in E. coli (BL21-derived) for most kinases; HEK-293 for the rest
T19 sequence (Q13177 whole entry): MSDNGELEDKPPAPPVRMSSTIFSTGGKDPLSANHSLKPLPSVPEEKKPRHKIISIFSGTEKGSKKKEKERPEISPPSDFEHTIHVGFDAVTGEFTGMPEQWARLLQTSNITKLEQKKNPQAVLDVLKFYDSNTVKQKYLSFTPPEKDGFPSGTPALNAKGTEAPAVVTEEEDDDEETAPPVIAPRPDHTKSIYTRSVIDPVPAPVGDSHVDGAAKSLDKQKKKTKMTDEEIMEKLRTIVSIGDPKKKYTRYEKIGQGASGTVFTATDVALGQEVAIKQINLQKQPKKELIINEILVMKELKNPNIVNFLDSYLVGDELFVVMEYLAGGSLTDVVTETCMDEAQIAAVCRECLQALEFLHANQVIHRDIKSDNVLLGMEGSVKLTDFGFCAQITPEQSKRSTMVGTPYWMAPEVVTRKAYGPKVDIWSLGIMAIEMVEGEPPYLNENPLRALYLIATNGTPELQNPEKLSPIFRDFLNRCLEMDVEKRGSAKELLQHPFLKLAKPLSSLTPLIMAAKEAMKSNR
Protocol: as §1

[20] = target: T20, panel of ninety-seven kinases (Homo sapiens, UniProt Q16539); conditions: MAPK14; read-out: % Ctrl @ 3 μM
T20 construct: purchased DiscoverX; host or cells: T7 phage in E. coli (BL21-derived) for most kinases; HEK-293 for the rest
T20 sequence (Q16539 whole entry): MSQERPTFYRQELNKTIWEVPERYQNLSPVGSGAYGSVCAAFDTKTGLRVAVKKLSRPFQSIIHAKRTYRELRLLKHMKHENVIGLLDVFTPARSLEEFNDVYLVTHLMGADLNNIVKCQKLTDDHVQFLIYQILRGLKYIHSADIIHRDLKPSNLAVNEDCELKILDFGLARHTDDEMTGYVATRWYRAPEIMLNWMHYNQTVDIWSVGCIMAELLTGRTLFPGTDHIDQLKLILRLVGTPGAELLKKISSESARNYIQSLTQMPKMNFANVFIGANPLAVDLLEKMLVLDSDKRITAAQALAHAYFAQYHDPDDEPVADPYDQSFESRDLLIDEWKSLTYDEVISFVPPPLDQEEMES
Protocol: as §1

[21] = target: T21, panel of ninety-seven kinases (Homo sapiens, UniProt P50613); conditions: CDK7; read-out: % Ctrl @ 3 μM
T21 construct: purchased DiscoverX; host or cells: T7 phage in E. coli (BL21-derived) for most kinases; HEK-293 for the rest
T21 sequence (P50613 whole entry): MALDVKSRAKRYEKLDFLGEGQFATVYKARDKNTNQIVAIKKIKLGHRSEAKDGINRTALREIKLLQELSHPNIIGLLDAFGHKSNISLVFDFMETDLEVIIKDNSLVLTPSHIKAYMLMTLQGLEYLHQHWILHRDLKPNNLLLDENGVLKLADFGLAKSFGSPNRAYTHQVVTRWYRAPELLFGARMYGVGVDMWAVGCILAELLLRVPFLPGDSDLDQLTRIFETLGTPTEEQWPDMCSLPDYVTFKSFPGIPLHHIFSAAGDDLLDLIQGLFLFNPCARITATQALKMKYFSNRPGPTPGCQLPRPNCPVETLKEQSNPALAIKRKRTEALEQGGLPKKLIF
Protocol: as §1

percent of control kinase binding to immobilized ligand at 3 µM [1]: 100%
percent of control kinase binding to immobilized ligand at 3 µM [2]: 100%
percent of control kinase binding to immobilized ligand at 3 µM [3]: 99%
percent of control kinase binding to immobilized ligand at 3 µM [4]: 100%
percent of control kinase binding to immobilized ligand at 3 µM [5]: 87%
percent of control kinase binding to immobilized ligand at 3 µM [6]: 81%
percent of control kinase binding to immobilized ligand at 3 µM [7]: 100%
percent of control kinase binding to immobilized ligand at 3 µM [8]: 97%
percent of control kinase binding to immobilized ligand at 3 µM [9]: 100%
percent of control kinase binding to immobilized ligand at 3 µM [10]: 100%
percent of control kinase binding to immobilized ligand at 3 µM [11]: 93%
percent of control kinase binding to immobilized ligand at 3 µM [12]: 80%
percent of control kinase binding to immobilized ligand at 3 µM [13]: 98%
percent of control kinase binding to immobilized ligand at 3 µM [14]: 100%
percent of control kinase binding to immobilized ligand at 3 µM [15]: 80%
percent of control kinase binding to immobilized ligand at 3 µM [16]: 88%
percent of control kinase binding to immobilized ligand at 3 µM [17]: 81%
percent of control kinase binding to immobilized ligand at 3 µM [18]: 93%
percent of control kinase binding to immobilized ligand at 3 µM [19]: 100%
percent of control kinase binding to immobilized ligand at 3 µM [20]: 100%
percent of control kinase binding to immobilized ligand at 3 µM [21]: 100%
SMILES: CN(C)CCNC(=O)c1ccc(-c2ccc(-c3ccc(Cl)cc3)n2-c2ccccc2C(F)(F)F)cc1 (single isomer, unassigned) [Atropisomer A-2, 4-[5-(4-chlorophenyl)-1-[2-(trifluoromethyl)phenyl]pyrrol-2-yl]-N-[2-(dimethylamino)ethyl]benzamide]
